Data as given in patent publication US4327093A, “3,7-Disubstituted-2 or 3-cephem-4-carboxylic acid compounds” (Fujisawa Pharmaceutical Co., Ltd., priority 1978, dated 1982).
Values after ≈ are worked out from the molar mass of the structure shown.

Tests used:
Proteus mirabilis 18 = assay: Minimal inhibitory concentration (MIC) by agar streak, HI-agar, 37° C., 20 hours; format: cell-based; settings: 10^6 viable cells per ml, 37° C. for 20 hours
Method: (§1) One loopful of an overnight culture of each test strain in Trypticase-soy broth (10^6 viable cells per ml.) was streaked on heart infusion agar (HI-agar) containing graded concentrations of antibiotics, and the minimal inhibitory concentration (MIC) was expressed in terms of μg/ml after incubation at 37° C. for 20 hours.

Klebsiella pneumoniae 20 = assay: as above; format: cell-based; settings: 10^6 viable cells per ml, 37° C. for 20 hours
Method: as §1

Compound	MIC (Proteus mirabilis 18)	MIC (Klebsiella pneumoniae 20)
CO/N=C(\C(=O)NC1C(=O)N2C(C(=O)O)=C(COC(=O)N3CCN(C)CC3)CSC12)c1nsc(N)n1 (stereo not shown) [(2)]	0.2 µg/mL (≈ 0.37 µM)	0.05 µg/mL (≈ 0.0925 µM)
CO/N=C(\C(=O)NC1C(=O)N2C(C(=O)O)=C(COC(=O)N3CCN(C)CC3)CSC12)c1csc(N)n1 (stereo not shown) [(1)]	0.05 µg/mL (≈ 0.0927 µM)	0.1 µg/mL (≈ 0.185 µM)
